According to US12448400B2, “KRAS G12D modulating compounds” (priority 2023, dated 2025):

Key:
GP2D (KRAS G12D) cells = test: 2D cell viability assay (CellTiter-Glo); assay type: cell-based; settings: 96 h; GP2D cells, 4 days, CellTiter-Glo luminescence; read-out: G12D 2D EC50
Method in brief: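 GP2D (KRAS G12D) cells, 1000/well in RPMI + 10% FBS, were plated onto compound (1:3 DMSO series) and grown 4 days at 37 °C, 5% CO2 in 2D. CellTiter-Glo luminescence was read; EC50 is the concentration giving 50% signal decrease, from sigmoidal fit.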

[1] = Rat oral pharmacokinetics; parameters: species or system Male Sprague Dawley rats; settings: male, Sprague Dawley, in vivo
Method: Rat Oral Pharmacokinetics
Test compounds were formulated in solution formulations (10 w/v % Sulfobutylether-p-cyclodextrin; 90% w/v % 50 mM Citrate Buffer) and administered orally to a group of three Male Sprague Dawley rats. The animals were fasted overnight prior to dose administration and up to four hours after dosing. The test articles were administrated by oral gavage at a dose volume of 5 mL-eq/kg.
(§1) Blood samples were collected at predose and 0.25, 0.5, 1, 2, 4, 6, 8, 12, 24, 48 and 72 hours post dose into K2EDTA tubes and stored on wet ice until processed. Whole blood was processed to plasma by centrifugation (3500 rpm for 10 minutes at 5° C.) within 30 minutes of collection. Plasma samples were placed in Micronic 96 well tubes and stored at −80° C. until transferred. Plasma concentration of the test compounds was determined by LC-MS/MS. Pharmacokinetic parameters were estimated using non-compartment model analysis. The maximum observed concentration (Cmax) and area under the curve from time of dosing to last measured concentration (AUClast) were calculated and reported.

GDP-loaded KRAS G12D = GDP-loaded KRAS G12D (Homo sapiens, UniProt P01116, G12D); test: KRAS G12D (GDP) biochemical assay, TR-FRET probe displacement; assay type: binding; settings: 0.5 nM enzyme, 30 min pre-incubation, 2 h incubation, TR-FRET ratio; read-out: G12D IC50
Method in brief: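 Compound pre-incubated 30 min with GDP-loaded KRAS G12D in 50 mM Hepes pH 7.4, 150 mM NaCl, 5 mM MgCl2, 0.005% Tween-20, then Eu-streptavidin and TR-FRET probe added. After 2 h at room temperature, TR-FRET ratio read; IC50 is 50% ratio decrease, sigmoidal fit.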

[2] = Mouse oral cassette pharmacokinetics; assay type: in vivo, male CD-1 mice; settings: male, CD-1, mouse, in vivo, po, 30 mg/kg
Method: Mouse Oral Cassette Pharmacokinetics
Test compounds (1-3 compounds per cassette) were formulated in solution formulations (10 w/v % Captisol in 50 mM Citrate buffer) and administered orally at 30 mg-eq./kg each compound to a group of four male CD-1 mice. The test articles were administrated by oral gavage at a dose volume of 10 mL-eq/kg.
as §1, with “at” for “at predose and 0.25,”, “3,” for “2, 4,”, “8,” for “8, 12, 24, 48”, “24” for “72”

Chain of GDP-loaded KRAS G12D (P01116 1-188 isoform P01116-2 G12D): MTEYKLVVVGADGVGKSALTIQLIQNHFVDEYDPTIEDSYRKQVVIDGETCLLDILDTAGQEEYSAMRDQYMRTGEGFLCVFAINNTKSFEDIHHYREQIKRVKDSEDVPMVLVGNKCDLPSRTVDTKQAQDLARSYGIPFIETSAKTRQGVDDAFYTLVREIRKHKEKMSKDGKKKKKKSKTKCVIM

| SMILES | EC50 (GP2D (KRAS G12D) cells) [nM] | Rat Parent % F ([1]; 7.5 mg/kg) [%] | Rat Parent AUC ([1]; 7.5 mg/kg) [µM·h] | IC50 (GDP-loaded KRAS G12D) [nM] | Mouse Parent AUC [2] [µM·h] | Rat Parent % F ([1]; 5 mg/kg) [%] | Rat Parent AUC ([1]; 5 mg/kg) [µM·h] |
| --- | --- | --- | --- | --- | --- | --- | --- |
| C#Cc1c(F)ccc2cc(N)nc(-c3c(F)c4c5c(nc(OC[C@@]67CCCN6C[C@H](F)C7)nc5c3F)N3C[C@H]5CC[C@@H]([C@H]3CCC4)N5Cc3oc(=O)oc3C)c12 (atropisomer, axis not shown; (aR)) [Example 73, 4-(((1S,4R,11S,15aR)-11-(3-amino-8-ethynyl-7-fluoroisoquinolin-1-yl)-10,12-difluoro-8-(((2R,7aS)-2-fluorotetrahydro-1H-pyrrolizin-7a(5H)-yl)methoxy)-2,3,4,5,13,14,15,15a-octahydro-1H-1,4-epiminoazepino[1′,2′:1,8]azocino[2,3,4-de]quinazolin-16-yl)methyl)-5-methyl-1,3-dioxol-2-one] | 0.82 | 2 | 0.3 |  |  |  |  |
| CCc1c(F)ccc2cc(O)cc(-c3c(F)c4c5c(nc(OC[C@@]67CCCN6C[C@H](F)C7)nc5c3F)N3C[C@H]5CC[C@@H]([C@H]3CCC4)N5Cc3oc(=O)oc3C)c12 (atropisomer, axis not shown; (aR)) [Example 77, 4-(((1S,4R,11R,15aR)-11-(8-ethyl-7-fluoro-3-hydroxynaphthalen-1-yl)-10,12-difluoro-8-(((2R,7aS)-2-fluorotetrahydro-1H-pyrrolizin-7a(5H)-yl)methoxy)-2,3,4,5,13,14,15,15a-octahydro-1H-1,4-epiminoazepino[1′,2′:1,8]azocino[2,3,4-de]quinazolin-16-yl)methyl)-5-methyl-1,3-dioxol-2-one] | 0.26 |  | 0.43 |  |  |  |  |
| C#Cc1c(F)ccc2cc(N)nc(-c3c(F)c4c5c(nc(OC[C@@]67CCCN6C[C@H](F)C7)nc5c3F)N3C[C@H]5CC[C@@H]([C@H]3CCC4)N5Cc3oc(=O)oc3CC)c12 (atropisomer, axis not shown; (aR)) [Example 79, 4-(((1S,4R,11S,15aR)-11-(3-amino-8-ethynyl-7-fluoroisoquinolin-1-yl)-10,12-difluoro-8-(((2R,7aS)-2-fluorotetrahydro-1H-pyrrolizin-7a(5H)-yl)methoxy)-2,3,4,5,13,14,15,15a-octahydro-1H-1,4-epiminoazepino[1′,2′:1,8]azocino[2,3,4-de]quinazolin-16-yl)methyl)-5-ethyl-1,3-dioxol-2-one] | 1.2 |  | 0.22 |  |  |  |  |
| C#Cc1c(F)ccc2cc(O)cc(-c3nc4c5c(nc(OC[C@@]67CCCN6C[C@H](F)C7)nc5c3F)N3C[C@H]5CC[C@@H]([C@H]3CC[C@H]4C)N5Cc3oc(=O)oc3CCCCCCCC)c12 [Example 13, 4-(((4R,6aR,7S,10R)-2-(8-ethynyl-7-fluoro-3-hydroxynaphthalen-1-yl)-1-fluoro-13-(((2R,7aS)-2-fluorotetrahydro-1H-pyrrolizin-7a(5H)-yl)methoxy)-4-methyl-5,6,6a,7,8,9,10,11-octahydro-4H-3,11a,12,14,15-pentaaza-7,10-methanocyclohepta[4,5]cycloocta[1,2,3-de]naphthalen-15-yl)methyl)-5-octyl-1,3-dioxol-2-one] | 0.19 |  |  | 24 | 0.42 |  |  |
| C#Cc1c(F)ccc2cc(O)cc(-c3nc4c5c(nc(OC[C@@]67CCCN6C[C@H](F)C7)nc5c3F)N3C[C@H]5CC[C@@H]([C@H]3CCC4)N5Cc3oc(=O)oc3CCCCCC)c12 [Example 14, 4-(((6aR,7S,10R)-2-(8-ethynyl-7-fluoro-3-hydroxynaphthalen-1-yl)-1-fluoro-13-(((2R,7aS)-2-fluorotetrahydro-1H-pyrrolizin-7a(5H)-yl)methoxy)-5,6,6a,7,8,9,10,11-octahydro-4H-3,11a,12,14,15-pentaaza-7,10-methanocyclohepta[4,5]cycloocta[1,2,3-de]naphthalen-15-yl)methyl)-5-hexyl-1,3-dioxol-2-one] | 0.14 |  |  | 7.3 | 0.94 |  |  |
| C#Cc1c(F)ccc2cc(O)cc(-c3nc4c5c(nc(OC[C@@]67CCCN6C[C@H](F)C7)nc5c3F)N3C[C@H]5CC[C@@H]([C@H]3CCC4)N5Cc3oc(=O)oc3C3CCCCC3)c12 [Example 15, 4-cyclohexyl-5-(((6aR,7S,10R)-2-(8-ethynyl-7-fluoro-3-hydroxynaphthalen-1-yl)-1-fluoro-13-(((2R,7aS)-2-fluorotetrahydro-1H-pyrrolizin-7a(5H)-yl)methoxy)-5,6,6a,7,8,9,10,11-octahydro-4H-3,11a,12,14,15-pentaaza-7,10-methanocyclohepta[4,5]cycloocta[1,2,3-de]naphthalen-15-yl)methyl)-1,3-dioxol-2-one] | 0.2 |  |  | 7.9 | 0.25 |  |  |
| C#Cc1c(F)ccc2cc(O)cc(-c3nc4c5c(nc(OC[C@@]67CCCN6C[C@H](F)C7)nc5c3F)N3C[C@H]5CC[C@@H]([C@H]3CC[C@H]4C)N5Cc3oc(=O)oc3CCCCCC)c12 [Example 16, 4-(((4R,6aR,7S,10R)-2-(8-ethynyl-7-fluoro-3-hydroxynaphthalen-1-yl)-1-fluoro-13-(((2R,7aS)-2-fluorotetrahydro-1H-pyrrolizin-7a(5H)-yl)methoxy)-4-methyl-5,6,6a,7,8,9,10,11-octahydro-4H-3,11a,12,14,15-pentaaza-7,10-methanocyclohepta[4,5]cycloocta[1,2,3-de]naphthalen-15-yl)methyl)-5-hexyl-1,3-dioxol-2-one] | 0.16 |  |  | 40 | 0.95 |  |  |
| C#Cc1c(F)ccc2cc(O)cc(-c3nc4c5c(nc(OC[C@@]67CCCN6C[C@H](F)C7)nc5c3F)N3C[C@H]5CC[C@@H]([C@H]3CC[C@H]4C)N5Cc3oc(=O)oc3C3CCCCC3)c12 [Example 17, 4-cyclohexyl-5-(((4R,6aR,7S,10R)-2-(8-ethynyl-7-fluoro-3-hydroxynaphthalen-1-yl)-1-fluoro-13-(((2R,7aS)-2-fluorotetrahydro-1H-pyrrolizin-7a(5H)-yl)methoxy)-4-methyl-5,6,6a,7,8,9,10,11-octahydro-4H-3,11a,12,14,15-pentaaza-7,10-methanocyclohepta[4,5]cycloocta[1,2,3-de]naphthalen-15-yl)methyl)-1,3-dioxol-2-one] | 0.2 |  |  | 48 | 0.161 |  |  |
| C#Cc1c(F)ccc2cccc(-c3nc4c5c(nc(OC[C@@]67CCCN6C[C@H](F)C7)nc5c3F)N3C[C@H]5CC[C@@H]([C@H]3CCC4)N5C(=O)OC(C)OC(=O)CCC)c12 (stereo partly drawn) [Example 25, 1-(butyryloxy)ethyl (6aR,7S,10R)-2-(8-ethynyl-7-fluoronaphthalen-1-yl)-1-fluoro-13-(((2R,7aS)-2-fluorotetrahydro-1H-pyrrolizin-7a(5H)-yl)methoxy)-5,6,6a,7,8,9,10,11-octahydro-4H-3,11a,12,14,15-pentaaza-7,10-methanocyclohepta[4,5]cycloocta[1,2,3-de]naphthalene-15-carboxylate] |  |  |  |  |  | 1 | 0.037 |
| C#Cc1c(F)ccc2cc(N)cc(-c3nc4c5c(nc(OC[C@@]67CCCN6C[C@H](F)C7)nc5c3F)N3C[C@H]5CC[C@H](N5)[C@H]3CCC4)c12 [Example 69-P, 5-ethynyl-6-fluoro-4-((6aR,7S,10R)-1-fluoro-13-(((2R,7aS)-2-fluorotetrahydro-1H-pyrrolizin-7a(5H)-yl)methoxy)-5,6,6a,7,8,9,10,11-octahydro-4H-3,11a,12,14,15-pentaaza-7,10-methanocyclohepta[4,5]cycloocta[1,2,3-de]naphthalen-2-yl)naphthalen-2-amine] | 0.5 |  |  | 0.07 | 0.5 |  |  |
